Source: US20240101548A1, “HYDROXAMATE COMPOUND, PREPARATION METHOD THEREFOR AND APPLICATION THEREOF” (SHENZHEN CHIPSCREEN BIOSCIENCES CO., LTD., priority 2020, published 2024)
Where two headings read alike, the source gives them in different places.

Assays:
[1] = system: EPO-induced JAK2 signal pathway; assay: EPO-induced proliferation of UT-7 cells (JAK2 signal); format: cell-based, human; details: Homo sapiens, UT7; UT-7 cell proliferation, EPO 10 ng/mL, 72 hours; read-out: Inhibition activity IC50 on EPO-induced JAK2 signal pathway
How it was run: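 UT-7 cells (15000/well) stimulated with 10 ng/mL human recombinant EPO plus compound at final 0, 100, 1000 or 10000 nM, 72 h at 37° C., 5% CO2. Proliferation by alamarBlue fluorescence (Ex530/Em590); inhibition normalised to no-cytokine/no-compound (0) and EPO-only (100) wells, […] derived from dose-inhibition.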

[2] = system: IL-10-induced JAK1/TYK2 signal pathway; assay: IL-10-induced JAK1/TYK2 signal pathway STAT3-Luc reporter gene assay in U2OS cells; format: cell-based, human; details: U2OS cells, STAT3-Luc reporter, IL-10 10 ng/mL, read-out: Half inhibition dose (IC50) on IL-10-induced JAK1/TYK2 signal pathway
How it was run: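 U2OS cells co-transfected with IL-10R1-EGFP and STAT3-luciferase reporter plasmids; after 24 h, compound added (0–300 nM) for 6 h before 10 ng/mL human IL-10, then 24 h culture. Luciferase signal normalised to GFP for transfection efficiency; IC50 from inhibition rates.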

[3] = system: INF-α-induced pSTAT5 in human PBMC; assay: INF-α-induced pSTAT5 in human PBMC (FACS, CD3 positive cells); format: cell-based; details: IFN-α 30 ng/ml, read-out: Inhibition activity IC50 on INF-α-induced pSTAT5 in human PBMC
Procedure: hPBMC (available from Shanghai AoNeng Biotechnology Co., Ltd.) was inoculated in 96-well plate, added with compound of the present invention (at concentrations of 40 nM and 200 nM), incubated for 60 min (compound in concentrations of 2 nM, 10 nM respectively during the incubation); added with 30 ng/ml of stimulating factor IFN-α (BioLegend) together with anti-CD3 antibody (Biolegend) and then continued to be incubated for 30 min. After the incubation, each well was added with 1 mL of fixing solution (BD Biosciences), the obtained mixture was incubated for 10 min followed by centrifugation, added with 400 μL/well of Perm III (BD Biosciences), followed by further incubation at 4° C. for 30 min. The obtained mixture was added with mouse anti-human pSTAT5 antibody (Alexa Fluor® 647 Conjugate), followed by incubation at room temperature for 40 min. Fluorescence intensity of pSTAT5 in CD3 positive cells was detected by FACS.
Inhibition rate at individual compound concentration was calculated with the following formula:
Inhibition rate=(MFI value(IFN-α-stimulated control)−MI value(2/10 nM compound treated group)/MFI value(IFN-α-stimulated control)[…]
wherein: MFI value meant fluorescence intensity value; IFN-α-stimulated control meant control group which was operated similarly to the experimental groups but no compound of the present invention was added.

[4] = system: IL-2-induced JAK1/JAK3 signal pathway; assay: IL-2-induced proliferation of KHYG-1 cells (JAK1/JAK3 signal); format: cell-based, human; details: Homo sapiens; KHYG-1 cell proliferation, IL-2 10 ng/mL, 72 hours; read-out: Inhibition activity IC50 on IL-2-induced JAK1/JAK3 signal pathway
How it was run: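 KHYG-1 NK lymphoma cells were cultured with IL-2 and test compound at various doses for 72 h at 37 °C and 5% CO2, and proliferation was read with alamarBlue fluorescence. Inhibition was normalized to wells without compound or cytokine (0%) and IL-2 wells without compound (100%), and C50 was derived from the dose-inhibition data.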

[5] = In-vivo pharmacokinetic test in mice; details: mouse, po; BALB/c female mice, gavage 10 mg/kg, plasma
Procedure: LC-MS/MS method is used to determine the drug concentration in the plasma of mice at different times after intragastric administration of the compound of the example. Relevant pharmacokinetic parameters are calculated to study the pharmacokinetic behavior of the compound of the present invention in mice, thereby evaluating the pharmacokinetic characteristics thereof.
Test animal was healthy adult BALB/c female mouse (provided by Chengdu Yaokang Biotechnology Co., Ltd.);
Compound administration and sample collection: compound was administered to BALB/c female mice by gavage (10 mg/kg). At 0.25, 0.5, 1, 2, 4, 6, 8, and 24 hours after administration, 60 μL of whole blood of the mouse fundus venous plexus were collected and centrifuged at 4000 rpm for 10 min to provide plasma.
Sample analysis: 10 μL of mouse plasma samples were respectively added with 290 μL of acetonitrile solution containing internal standard to precipitate proteins. After swirling for 10 min and centrifuging at 4000 rpm for 10 min, 200 μL of supernatant was added to 96-well plate, and analyzed by LC-MS/MS at an injection volume of 1 μL.

[6] = biological target: TYK2 JH2 domain (Homo sapiens (Human), UniProt P29597); assay: TYK2 JH2 domain FRET tracer assay; format: binding; details: FRET 665/615 nm; read-out: Inhibition activity IC50 on TYK2 JH2 domain
Chain of TYK2 JH2 domain (P29597 589-875): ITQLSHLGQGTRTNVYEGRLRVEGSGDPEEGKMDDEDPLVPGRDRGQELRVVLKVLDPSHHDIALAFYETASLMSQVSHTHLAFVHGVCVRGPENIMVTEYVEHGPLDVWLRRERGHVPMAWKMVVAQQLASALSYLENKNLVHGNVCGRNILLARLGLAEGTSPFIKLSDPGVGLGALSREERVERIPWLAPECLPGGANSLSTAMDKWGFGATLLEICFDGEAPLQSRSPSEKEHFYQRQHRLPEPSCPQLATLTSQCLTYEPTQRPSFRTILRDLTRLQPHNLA
Procedure: Compound of the present invention formulated into different concentrations (series 3 times dilutions, started from 60 μM, 11 concentrations in total) was added to 384-well plate, followed by 5 μL of enzyme (i.e., TYK2 JH2 domain), Tb antibody (Cisbio) and tracer. The mixture was incubated at 25° C. for 60 min and left at 4° C. overnight.

Row | Compound | IC50 ([2]; Homo sapiens, U2OS) [nM] | AUC [5] [µM·h] | Cmax [5] [µM] | IC50 [1] [nM] | IC50 ([3]; Homo sapiens, PBMC) [nM] | IC50 [4] [nM] | IC50 [6] [nM] | IC50 ([2]; Homo sapiens) [nM] | IC50 [2] [nM] | IC50 [3] [nM]
1 | CCONC(=O)c1cnc(NC(=O)C2CC2)cc1Nc1cc(F)cc(-c2ncn(C3CC3)n2)c1OC [Example 205] | 1.79 |  |  | > 10000 | < 2 | > 10000 |  |  |  | 
2 | CCONC(=O)c1cnc(Nc2cc(C)nc(C)n2)cc1Nc1cc(F)cc(-c2cnc(C)cn2)c1OC [Example 214] | 0.16 | 41.9 | 9.21 | > 10000 |  | > 10000 | 0.09 |  |  | 
3 | CCONC(=O)c1cnc(Nc2cc(C)nc(C)n2)cc1Nc1cccc(-c2cnccn2)c1OC [Example 248, 6-((2,6-dimethylpyrimidin-4-yl)amino)-N-ethoxy-4-((2-methoxy-3-(pyrazin-2-yl)phenyl)amino)nicotinamide] |  |  |  | > 10000 | < 2 | > 10000 |  | 1.04 |  | 
4 | CCONC(=O)c1cnc(NC(=O)C2CC2(F)F)cc1Nc1ccc(C2CC2)cc1N(C)S(C)(=O)=O (centres unmarked) [Example 277, 4-((4-cyclopropyl-2-(N-methylmethanesulfonamido)phenyl)amino)-6-(2,2-difluorocyclopropyl-1-carboxamido)-N-ethoxy nicotinamide] | 0.466 |  |  | > 10000 |  | > 10000 | 0.12 |  |  | 
5 | BMS-986165 |  |  |  |  |  |  |  |  | 3.03 | 2

Further lines, with some results ahead:

Row | IC50 ([2]; Homo sapiens, U2OS) [nM] | AUC [5] [µM·h] | Cmax [5] [µM] | Compound | IC50 [1] [nM] | IC50 ([3]; Homo sapiens, PBMC) [nM] | IC50 [4] [nM] | IC50 [6] [nM] | IC50 ([2]; Homo sapiens) [nM] | IC50 [2] [nM] | IC50 [3] [nM]
6 | 0.889 | 34.3 | 16.4 | CCONC(=O)c1cnc(Nc2cc(C)nc(C)n2)cc1Nc1cccc(-c2ncc(F)cn2)c1OC [Example 208, 6-((2,6-dimethylpyrimidin-4-yl)amino)-N-ethoxy-4-((3-(5-fluoropyrimidin-2-yl)-2-methoxyphenyl)amino)nicotinamide] | > 10000 |  | > 10000 |  |  |  | 
7 | 1.98 |  |  | CCONC(=O)c1cnc(Nc2cc(C)nc(C)n2)cc1Nc1cc(F)cc(-c2ncc(F)cn2)c1OC [Example 211] | > 10000 | < 2 | > 10000 |  |  |  | 
8 | 0.146 | 49.3 | 18 | CCONC(=O)c1cnc(Nc2cc(C)nc(C)n2)cc1Nc1cccc(-c2cnc(C)cn2)c1OC [Example 213] | > 10000 |  | > 10000 |  |  |  | 
9 | 0.36 |  |  | CCONC(=O)c1cnc(Nc2cc(C)nc(C)n2)cc1Nc1cc(F)cc(-c2ncc(C)cn2)c1OC [Example 225, 6-((2,6-dimethylpyrimidin-4-yl)amino)-N-ethoxy-4-((5-fluoro-2-methoxy-3-(5-methylpyrimidin-2-yl)phenyl)amino)nicotinamide] | > 10000 | < 2 | > 10000 |  |  |  | 
